Data from patent publication US9751874B2, “Hydroxy containing FXR (NR1H4) modulating compounds” (Gilead Sciences, Inc., priority 2014, dated 2017).
Where a name gives a salt, the structure may show the parent alone.

How the values were obtained:
[1] = target: T1, human FXR alpha ligand binding domain (Homo sapiens, UniProt Q96RI1); experiment: FRET activity assay (ligand mediated cofactor peptide interaction, LANCE); type: biochemical; conditions: GST-FXR-LBD / biotinylated SRC-1 peptide (676-700), read-out: F EC50
T1 construct: made in house; host or cells: E. coli BL21(DE3), vector pDEST15
T1 sequence (Q96RI1 187-472 isoform Q96RI1-2): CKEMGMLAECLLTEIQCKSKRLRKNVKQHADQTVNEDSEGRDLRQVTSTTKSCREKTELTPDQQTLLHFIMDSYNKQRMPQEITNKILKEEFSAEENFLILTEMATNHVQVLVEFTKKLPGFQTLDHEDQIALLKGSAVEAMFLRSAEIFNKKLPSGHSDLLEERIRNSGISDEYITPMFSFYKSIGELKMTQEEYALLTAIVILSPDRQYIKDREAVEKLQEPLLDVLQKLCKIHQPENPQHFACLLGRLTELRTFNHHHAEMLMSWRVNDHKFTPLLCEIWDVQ
Outline: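 GST-tagged FXR LBD (aa 187–472, E. coli-expressed) at 20–60 ng/well with 200–600 nM biotinylated SRC-1 peptide (676–700), streptavidin-APC and Eu anti-GST in Tris pH 7.5 buffer, 1% DMSO, equilibrated 1 h dark at room temperature. TR-FRET read as 665/615 nm ratio; agonists raise signal above basal.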

[2] = target: T2, FXR ligand binding domain (Homo sapiens, UniProt Q96RI1); experiment: Mammalian One Hybrid (M1H) assay, Gal4 promoter driven transactivation in HEK293 cells; type: cell-based; conditions: Gal4-FXR-LBD luciferase reporter, 16 h
T2 construct: expressed in transfected cells; host or cells: HEK293 cells, transiently transfected with pCMV-BD-FXR-LBD, pFR-Luc and pRL-CMV
T2 sequence (Q96RI1 187-472 isoform Q96RI1-2): T1 sequence (Q96RI1 187-472 isoform Q96RI1-2)
Outline: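 HEK293 cells were transiently co-transfected with Gal4-DBD fused to the human FXR LBD (aa 187-472, NM_005123), a 5×GAL4-site firefly luciferase reporter and CMV-Renilla control. Compounds were added 2-4 h post-transfection (vehicle ≤0.1%) in charcoal/dextran-stripped FBS medium for 16 h. Firefly and Renilla luciferase were read sequentially, in triplicate.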

SMILES | EC50 [1] | EC50 [2]
O[C@@]1(c2nc3ccc(CN4CCOCC4)cc3s2)[C@@H]2CC[C@H]1C[C@H](OCc1c(-c3c(Cl)cccc3Cl)noc1C1CC1)C2 [Example 43, (1R,3s,5S,8r)-3-((5-Cyclopropyl-3-(2,6-dichlorophenyl)isoxazol-4-yl)methoxy)-8-(6-(morpholinomethyl)benzo[d]thiazol-2-yl)bicyclo[3.2.1]octan-8-ol] | 0.015 µM | 0.015 µM
O=C(O)Cc1csc([C@]2(O)[C@@H]3CC[C@H]2C[C@H](OCc2c(-c4c(Cl)cccc4Cl)noc2C2CC2)C3)n1 [Example 46, 2-(2-((1R,3s,5S,8r)-3-((5-Cyclopropyl-3-(2,6-dichlorophenyl)isoxazol-4-yl)methoxy)-8-hydroxybicyclo[3.2.1]octan-8-yl)thiazol-4-yl)acetic acid] | 0.042 µM | 0.26 µM

Now those with a lower EC50 [1], led by results:

EC50 [1] | EC50 [2] | SMILES
0.0032 µM | 0.76 µM | O=C(NCCS(=O)(=O)O)c1cc(F)c2nc([C@]3(O)[C@@H]4CC[C@H]3C[C@H](OCc3c(-c5c(Cl)cccc5Cl)noc3C3CC3)C4)sc2c1 [Example 39, 2-(2-((1R,3s,5S,8r)-3-((5-Cyclopropyl-3-(2,6-dichlorophenyl)isoxazol-4-yl)methoxy)-8-hydroxybicyclo[3.2.1]octan-8-yl)-4-fluorobenzo[d]thiazole-6-carboxamido)ethanesulfonic acid, ammonia salt]
0.006 µM | 0.0079 µM | O=C(O)Cc1nc([C@]2(O)[C@@H]3CC[C@H]2C[C@H](OCc2c(-c4c(Cl)cccc4Cl)noc2C2CC2)C3)oc1C(F)(F)F [Example 45, 2-(2-((1R,3s,5S,8r)-3-((5-Cyclopropyl-3-(2,6-dichlorophenyl)isoxazol-4-yl)methoxy)-8-hydroxybicyclo[3.2.1]octan-8-yl)-5-(trifluoromethyl)oxazol-4-yl)acetic acid]
0.0011 µM | 0.0079 µM | O=C(O)c1cc(F)c2nc([C@]3(O)[C@@H]4CC[C@H]3C[C@H](OCc3c(C5CC5)cnn3-c3c(Cl)cccc3Cl)C4)sc2c1 [Example 47, 2-((1R,3s,5S,8r)-3-((4-Cyclopropyl-1-(2,6-dichlorophenyl)-1H-pyrazol-5-yl)methoxy)-8-hydroxybicyclo[3.2.1]octan-8-yl)-4-fluorobenzo[d]thiazole-6-carboxylic acid]
